# Assays:
# [1] = compound: CCCCOc1c(C(=O)c2c(F)cc(C)cc2F)c[nH]c2nncc1-2
# Luminespib/NVP-AUY922 = compound: CCNC(=O)c1noc(-c2cc(C(C)C)c(O)cc2O)c1-c1ccc(CN2CCOCC2)cc1 [Luminespib/NVP-AUY922]
# THZ-P1-2 = compound: CN(C)C/C=C/C(=O)NC1=CC=C(C=C1)C(=O)NC2=CC=CC(=C2)NC3=NC=NC(=C3)C4=CNC5=CC=CC=C54 [THZ-P1-2]
# BSJ-01-175 = compound: CN(C)C/C=C/C(=O)Nc1ccc(O[C@@H]2CCC[C@@H](Nc3ncc(Cl)c(-c4c[nH]c5ccccc45)n3)C2)cc1 [BSJ-01-175]
# Saracatinib/AZD0530 = compound: CN1CCN(CCOc2cc(OC3CCOCC3)c3c(Nc4c(Cl)ccc5c4OCO5)ncnc3c2)CC1 [Saracatinib/AZD0530]
# Ceritinib/LDK378 = compound: Cc1cc(Nc2ncc(Cl)c(Nc3ccccc3S(=O)(=O)C(C)C)n2)c(OC(C)C)cc1C1CCNCC1 [Ceritinib/LDK378]
# YKL-5-124 = compound: C=CC(=O)Nc1ccc(C(=O)Nc2[nH]nc3c2CN(C(=O)N[C@H](CN(C)C)c2ccccc2)C3(C)C)cc1 [YKL-5-124]; test: increase in dead-cell fraction, 72 h; higher = more death;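 further: breast cancer cell lines in 384-well plates, stained with Hoechst plus LIVE/DEAD far red dye and imaged, cells above an LDR intensity threshold counted dead, Hoechst-negative corpses included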
# BSJ-03-123 = compound: CC(=O)c1c(C)c2cnc(Nc3ccc(N4CCN(CCOCCOCCOCCNC(=O)COc5cccc6c5C(=O)N(C5CCC(=O)NC5=O)C6=O)CC4)cn3)nc2n(C2CCCC2)c1=O [BSJ-03-123]; test: as above
# [2] = compound: CC(=O)c1c(C)c2cnc(Nc3ccc(N4CCNCC4)cn3)nc2n(C2CCCC2)c1=O; test: as above
# [3] = compound: CCN1CCN(Cc2ccc(Nc3ncc(F)c(-c4cc(F)c5nc(C)n(C(C)C)c5c4)n3)nc2)CC1; test: as above
# Neratinib/HKI272 = compound: CCOc1cc2ncc(C#N)c(Nc3ccc(OCc4ccccn4)c(Cl)c3)c2cc1NC(=O)/C=C/CN(C)C [Neratinib/HKI272]; test: as above
# [4] = compound: CCc1cnn2c(NCc3ccc[n+]([O-])c3)cc(N3CCCC[C@H]3CCO)nc12; test: as above
# LEE011/Ribociclib = compound: CN(C)C(=O)c1cc2cnc(Nc3ccc(N4CCNCC4)cn3)nc2n1C1CCCC1 [LEE011/Ribociclib]; test: as above
# THZ531 = compound: CN(C)C/C=C/C(=O)Nc1ccc(C(=O)N2CCC[C@@H](Nc3ncc(Cl)c(-c4c[nH]c5ccccc45)n3)C2)cc1 [THZ531]; test: as above
# THZ1 = compound: CN(C)C/C=C/C(=O)Nc1ccc(C(=O)Nc2cccc(Nc3ncc(Cl)c(-c4c[nH]c5ccccc45)n3)c2)cc1 [THZ1]; test: as above
# Flavopiridol = compound: CN1CC[C@H](c2c(O)cc(O)c3c(=O)cc(-c4ccccc4Cl)oc23)[C@H](O)C1 [Flavopiridol]; test: as above
# 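Wherever GR50, 72 h is given: breast cancer and non-malignant breast epithelial cell lines, Deep Dye Drop or Dye Drop imaging, nine half-log doses, GR normalized to time-zero plates and DMSO-only controls.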
cell line,measurement,setting,value
SUM159,"GR50, 72 h",[1],0.159 µM
same,"GR50, 72 h",Luminespib/NVP-AUY922,0.00945 µM
same,"GR50, 72 h",THZ-P1-2,6.79 µM
same,"GR50, 72 h",BSJ-01-175,0.0681 µM
same,"GR50, 72 h",Saracatinib/AZD0530,> 10 µM
same,"GR50, 72 h",Ceritinib/LDK378,2.1 µM
same,increase in dead-cell fraction,YKL-5-124; 0.001 µM,0.08
same,increase in dead-cell fraction,YKL-5-124; 0.003162 µM,0.19
same,increase in dead-cell fraction,YKL-5-124; 0.01 µM,0.247
same,increase in dead-cell fraction,YKL-5-124; 0.03162 µM,0.231
same,increase in dead-cell fraction,YKL-5-124; 0.1 µM,0.221
same,increase in dead-cell fraction,YKL-5-124; 0.3162 µM,0.273
same,increase in dead-cell fraction,YKL-5-124; 1 µM,0.246
same,increase in dead-cell fraction,YKL-5-124; 3.162 µM,0.332
same,increase in dead-cell fraction,YKL-5-124; 10 µM,0.436
same,increase in dead-cell fraction,BSJ-03-123; 0.001 µM,-0.0023
same,increase in dead-cell fraction,BSJ-03-123; 0.003162 µM,0.0027
same,increase in dead-cell fraction,BSJ-03-123; 0.01 µM,-0.003
same,increase in dead-cell fraction,BSJ-03-123; 0.03162 µM,0.0063
same,increase in dead-cell fraction,BSJ-03-123; 0.1 µM,0.0055
same,increase in dead-cell fraction,BSJ-03-123; 0.3162 µM,0.0076
same,increase in dead-cell fraction,BSJ-03-123; 1 µM,0.0134
same,increase in dead-cell fraction,BSJ-03-123; 3.162 µM,0.0322
same,increase in dead-cell fraction,BSJ-03-123; 10 µM,0.28
same,increase in dead-cell fraction,[2]; 0.0003162 µM,0
same,increase in dead-cell fraction,[2]; 0.001 µM,0.0001
same,increase in dead-cell fraction,[2]; 0.003162 µM,-0.0023
same,increase in dead-cell fraction,[2]; 0.01 µM,-0.0027
same,increase in dead-cell fraction,[2]; 0.03162 µM,-0.009
same,increase in dead-cell fraction,[2]; 0.1 µM,-0.0094
same,increase in dead-cell fraction,[2]; 0.3162 µM,-0.0078
same,increase in dead-cell fraction,[2]; 1 µM,-0.0049
same,increase in dead-cell fraction,[2]; 3.162 µM,-0.0004
same,increase in dead-cell fraction,[3]; 0.001 µM,-0.0002
same,increase in dead-cell fraction,[3]; 0.003162 µM,-0.0043
same,increase in dead-cell fraction,[3]; 0.01 µM,-0.0052
same,increase in dead-cell fraction,[3]; 0.03162 µM,-0.0042
same,increase in dead-cell fraction,[3]; 0.1 µM,0.0006
same,increase in dead-cell fraction,[3]; 0.3162 µM,0.0029
same,increase in dead-cell fraction,[3]; 1 µM,0.0118
same,increase in dead-cell fraction,[3]; 3.162 µM,0.0126
same,increase in dead-cell fraction,[3]; 10 µM,0.447
same,increase in dead-cell fraction,Neratinib/HKI272; 0.0003162 µM,-0.005
same,increase in dead-cell fraction,Neratinib/HKI272; 0.001 µM,-0.0025
same,increase in dead-cell fraction,Neratinib/HKI272; 0.003162 µM,-0.0041
same,increase in dead-cell fraction,Neratinib/HKI272; 0.01 µM,-0.0075
same,increase in dead-cell fraction,Neratinib/HKI272; 0.03162 µM,-0.0087
same,increase in dead-cell fraction,Neratinib/HKI272; 0.1 µM,-0.0118
same,increase in dead-cell fraction,Neratinib/HKI272; 0.3162 µM,-0.0133
same,increase in dead-cell fraction,Neratinib/HKI272; 1 µM,-0.01
same,increase in dead-cell fraction,Neratinib/HKI272; 3.162 µM,-0.004
same,increase in dead-cell fraction,[4]; 0.0001 µM,-0.0009
same,increase in dead-cell fraction,[4]; 0.0003162 µM,-0.0008
same,increase in dead-cell fraction,[4]; 0.001 µM,-0.0012
same,increase in dead-cell fraction,[4]; 0.003162 µM,0.0013
same,increase in dead-cell fraction,[4]; 0.01 µM,0.0076
same,increase in dead-cell fraction,[4]; 0.03162 µM,0.299
same,increase in dead-cell fraction,[4]; 0.1 µM,0.226
same,increase in dead-cell fraction,[4]; 0.3162 µM,0.238
same,increase in dead-cell fraction,[4]; 1 µM,0.246
same,increase in dead-cell fraction,LEE011/Ribociclib; 0.001 µM,-0.0013
same,increase in dead-cell fraction,LEE011/Ribociclib; 0.003162 µM,0.0006
same,increase in dead-cell fraction,LEE011/Ribociclib; 0.01 µM,0.0082
same,increase in dead-cell fraction,LEE011/Ribociclib; 0.03162 µM,0.013
same,increase in dead-cell fraction,LEE011/Ribociclib; 0.1 µM,0.0057
same,increase in dead-cell fraction,LEE011/Ribociclib; 0.3162 µM,0.0121
same,increase in dead-cell fraction,LEE011/Ribociclib; 1 µM,0.0033
same,increase in dead-cell fraction,LEE011/Ribociclib; 3.162 µM,0.0075
same,increase in dead-cell fraction,LEE011/Ribociclib; 10 µM,0.0212
same,increase in dead-cell fraction,THZ531; 0.0001 µM,0.0035
same,increase in dead-cell fraction,THZ531; 0.0003162 µM,-0.0023
same,increase in dead-cell fraction,THZ531; 0.001 µM,-0.002
same,increase in dead-cell fraction,THZ531; 0.003162 µM,-0.003
same,increase in dead-cell fraction,THZ531; 0.01 µM,0.0062
same,increase in dead-cell fraction,THZ531; 0.03162 µM,-0.0033
same,increase in dead-cell fraction,THZ531; 0.1 µM,-0.0055
same,increase in dead-cell fraction,THZ531; 0.3162 µM,-0.0016
same,increase in dead-cell fraction,THZ531; 1 µM,0.0161
same,increase in dead-cell fraction,THZ1; 0.0001 µM,-0.005
same,increase in dead-cell fraction,THZ1; 0.0003162 µM,-0.0055
same,increase in dead-cell fraction,THZ1; 0.001 µM,-0.0004
same,increase in dead-cell fraction,THZ1; 0.003162 µM,-0.0006
same,increase in dead-cell fraction,THZ1; 0.01 µM,0.001
same,increase in dead-cell fraction,THZ1; 0.03162 µM,0.0024
same,increase in dead-cell fraction,THZ1; 0.1 µM,0.0084
same,increase in dead-cell fraction,THZ1; 0.3162 µM,0.0412
same,increase in dead-cell fraction,THZ1; 1 µM,0.212
same,increase in dead-cell fraction,Flavopiridol; 0.0001 µM,-0.0034
same,increase in dead-cell fraction,Flavopiridol; 0.0003162 µM,-0.0008
same,increase in dead-cell fraction,Flavopiridol; 0.001 µM,-0.0034
same,increase in dead-cell fraction,Flavopiridol; 0.003162 µM,-0.0003
same,increase in dead-cell fraction,Flavopiridol; 0.01 µM,-0.0024
same,increase in dead-cell fraction,Flavopiridol; 0.03162 µM,0.012
same,increase in dead-cell fraction,Flavopiridol; 0.1 µM,0.0436
same,increase in dead-cell fraction,Flavopiridol; 0.3162 µM,0.205
same,increase in dead-cell fraction,Flavopiridol; 1 µM,0.208

# From the supplement of paper PMC9663587
